Measurements taken from patent publication US20240208954A1, “OXADIAZOLE COMPOUND, PREPARATION METHOD THEREFOR, PHARMACEUTICAL COMPOSITION AND USE THEREOF” (SHANGHAI INSTITUTE OF MATERIA MEDICA, CHINESE ACADEMY OF …, priority 2020, published 2024).
Where two headings read alike, the source gives them in different places.

Tests used:
Format in all cases: cell-based
S1PR3 = S1PR3 (Homo sapiens, UniProt Q99500); experiment: Agonistic activity test on S1P receptors, FLIPR
Experimental: (§1) Instrument: FLIPR™ TETRA (Molecular Device)
(§2) Sample processing: Before the experiment, the working solution with the corresponding concentration was prepared by diluting with GPCR dilution buffer.
(§3) After 18-20 hours, the cell culture plat was taken out and added with dye working solution, and then the plate was placed in a 37° C./5% CO2 incubator for 1 hour, and finally equilibrated at room temperature for 15 minutes. Positive agonist working solution was added, and RFU values were detected and recorded. […] The positive agonist working fluid was added to the cell culture plate at the 21st second. […] The antagonistic mode detection program, the overall detection time of the instrument was 120 seconds, and positive antagonist working solution was added to the cell culture plate at the 21st second.
(§4) Data processing: Raw data were obtained via ScreenWorks (version 3.1) and saved as *FMD files on the Kingsray computer network system. Data were collected and analyzed using Excel and GraphPad Prism 6 software programs. For each well, the average fluorescence intensity value from 1 to 20 seconds was used as the baseline, and the maximum fluorescence intensity value from 21 to 120 seconds minus the minimum fluorescence intensity value from 21 to 120 seconds was the relative fluorescence intensity value (ARFU), from which the percentage activation or inhibition can be calculated based on the following equation.
(§5) % Activation Rate=(ΔRFUCompound-ΔRFUBackground)/(ΔRFUAgonist control-ΔRFUBackground)×100%
(§6) The data was analyzed using GraphPad Prism 6 with a four-parameter equation to calculate the EC50 and IC50 values. The four-parameter equation was as follows: y=Bottom+(Top-Bottom)/(1+10^((LogEC50/IC50-X)*HillSlope)), wherein X is the Log value of the concentration and Y was the inhibition rate.

S1P4 = target: T1, S1P4 (Homo sapiens, UniProt O95977); experiment: Subtype selectivity study, method of Experimental Example 1
T1 sequence (O95977 1-384): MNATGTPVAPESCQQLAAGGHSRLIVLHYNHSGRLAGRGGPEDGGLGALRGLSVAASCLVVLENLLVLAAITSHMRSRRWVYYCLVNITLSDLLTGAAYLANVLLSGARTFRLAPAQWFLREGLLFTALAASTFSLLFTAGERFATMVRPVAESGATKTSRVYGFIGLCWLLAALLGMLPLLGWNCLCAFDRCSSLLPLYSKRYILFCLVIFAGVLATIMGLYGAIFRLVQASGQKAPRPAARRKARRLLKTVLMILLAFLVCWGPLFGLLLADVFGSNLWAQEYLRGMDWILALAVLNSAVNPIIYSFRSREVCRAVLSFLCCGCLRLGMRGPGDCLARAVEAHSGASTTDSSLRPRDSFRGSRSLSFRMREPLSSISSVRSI
Experimental: (§7) Experimental method: CHO-K1/Ga15/EDG1 cells stably expressing EDG1 receptor were cultured in a 10 cm culture dish in a 37° C./5% CO2incubator, and digested when the confluence rate reached 80%-85%. The cells in collected cell suspension were inoculated into 384 microtiter plates at appropriate density, and then placed in a 37° C./5% CO2 incubator and continue to incubate for at least 18 hours before using for experiments. After 18-20 hours, the cell culture plat was taken out and added with dye working solution, and then the plate was placed in a 37° C./5% CO2 incubator for 1 hour, and finally equilibrated at room temperature for 15 minutes. Positive agonist working solution was added, and RFU values were detected and recorded. The 384 microplates, cell plates and tip box with positive agonist working solution were placed into FLIPRTM TETRA and the agonist mode assay program was run with an overall assay time of 120 seconds. The positive agonist working fluid was added to the cell culture plate at the 21st second. 384 microplate, cell plate and gun head box containing the positive antagonist working fluid were put into the FLIPRTM TETRA. The antagonistic mode detection program, the overall detection time of the instrument was 120 seconds, and positive antagonist working solution was added to the cell culture plate at the 21st second. Data processing: Raw data were obtained via ScreenWorks (version 3.1) and saved as *FMD files on the […] computer network system. Data were collected and analyzed using Excel and GraphPad Prism 6 software programs. […] The four-parameter equation was as follows: y=Bottom+(Top-Bottom)/(1+10^((LogEC50/IC50-X)*HillSlope)), wherein X is the Log value of the concentration and Y was the inhibition rate. The S1P receptor selectivity was tested for different subtypes using the method described in Experimental Example 1.

S1P2 = S1P2 (Homo sapiens, UniProt O95136); experiment: as above
Chain of S1P2 (O95136 whole entry, species assumed): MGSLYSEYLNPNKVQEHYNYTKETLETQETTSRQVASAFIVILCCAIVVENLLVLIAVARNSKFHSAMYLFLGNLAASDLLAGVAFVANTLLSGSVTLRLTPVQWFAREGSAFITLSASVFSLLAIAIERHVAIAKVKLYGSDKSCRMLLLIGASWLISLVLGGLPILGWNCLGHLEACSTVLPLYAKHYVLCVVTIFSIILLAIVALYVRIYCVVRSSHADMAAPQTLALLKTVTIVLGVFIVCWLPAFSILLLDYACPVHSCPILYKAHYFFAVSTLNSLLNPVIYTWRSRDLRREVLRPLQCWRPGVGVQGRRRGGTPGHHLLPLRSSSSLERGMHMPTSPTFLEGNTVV
Experimental: as §7

S1P5 = S1P5 (Homo sapiens, UniProt Q9H228); experiment: as above
Chain of S1P5 (Q9H228 whole entry, species assumed): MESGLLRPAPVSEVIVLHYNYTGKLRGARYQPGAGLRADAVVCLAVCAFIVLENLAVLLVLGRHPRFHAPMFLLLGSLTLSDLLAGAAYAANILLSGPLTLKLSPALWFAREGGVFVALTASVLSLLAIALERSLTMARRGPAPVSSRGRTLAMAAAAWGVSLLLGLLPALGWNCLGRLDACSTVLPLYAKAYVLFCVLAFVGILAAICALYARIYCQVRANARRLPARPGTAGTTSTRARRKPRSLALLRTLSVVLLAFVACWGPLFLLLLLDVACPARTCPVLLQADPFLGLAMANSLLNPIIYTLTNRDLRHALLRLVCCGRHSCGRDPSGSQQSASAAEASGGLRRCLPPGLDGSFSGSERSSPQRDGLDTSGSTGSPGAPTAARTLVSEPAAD
Experimental: as §7

S1PR1 = target: T2, S1PR1 (Homo sapiens, UniProt P21453); experiment: Agonistic activity test on S1P receptors, FLIPR, CHO-K1/Ga15/EDG1 cells
T2 construct: host or cells: CHO-K1 co-expressing Ga15
T2 sequence (P21453 whole entry): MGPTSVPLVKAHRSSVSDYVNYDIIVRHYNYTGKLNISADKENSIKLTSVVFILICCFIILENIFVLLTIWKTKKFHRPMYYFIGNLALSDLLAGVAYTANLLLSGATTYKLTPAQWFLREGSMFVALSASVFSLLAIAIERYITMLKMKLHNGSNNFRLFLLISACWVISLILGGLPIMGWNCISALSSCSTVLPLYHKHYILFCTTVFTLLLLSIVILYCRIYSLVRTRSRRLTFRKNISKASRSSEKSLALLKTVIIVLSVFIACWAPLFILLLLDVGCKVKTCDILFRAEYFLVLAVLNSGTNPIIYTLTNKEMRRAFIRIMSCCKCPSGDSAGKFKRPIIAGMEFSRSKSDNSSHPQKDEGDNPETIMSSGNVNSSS
Experimental: as §1
Experimental materials: CHO-K1/Ga15/EDG1 cells constructed by GenScript autonomously.
as §2, §3, §4, §5, §6

[1] = FLIPR agonist mode, read-out: S1PR3 EC50
[2] = subtype selectivity study, read-out: S1P3 EC50
[3] = CHO-K1/Ga15/EDG1 cells, FLIPR agonist mode, read-out: S1PR1 EC50

Chain of S1PR3 (Q99500 whole entry, species assumed): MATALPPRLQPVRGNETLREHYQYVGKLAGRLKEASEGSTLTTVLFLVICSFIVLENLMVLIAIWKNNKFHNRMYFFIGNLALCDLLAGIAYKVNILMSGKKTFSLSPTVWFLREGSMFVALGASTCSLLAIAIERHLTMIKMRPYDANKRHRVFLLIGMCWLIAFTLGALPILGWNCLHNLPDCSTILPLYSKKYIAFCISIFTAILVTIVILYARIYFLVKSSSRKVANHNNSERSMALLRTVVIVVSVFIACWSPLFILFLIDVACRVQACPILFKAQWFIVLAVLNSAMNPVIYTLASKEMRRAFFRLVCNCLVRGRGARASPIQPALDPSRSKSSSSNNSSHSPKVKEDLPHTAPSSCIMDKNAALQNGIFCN

| SMILES | EC50 (S1PR3; [1]) [µM] | EC50 (S1PR3; [2]) [µM] | EC50 (S1P4) [µM] | EC50 (S1P2) [µM] | EC50 (S1P5) [µM] | EC50 (S1PR1; [3]) [µM] | EC50 (S1PR1; subtype selectivity study, read-out: S1P1 EC50) [µM] |
| --- | --- | --- | --- | --- | --- | --- | --- |
| CC(C)Oc1ccc(-c2nc(-c3cccc4c3CC[C@@H]4NCCO)no2)cc1C#N [Ozanimod] | > 10 | 2.62 | > 10 | > 10 | 0.0107 | – | – |
| CC(C)(C)Oc1ccc(-c2nc(-c3ccc(CN4CC(C(=O)O)C4)c4ccccc34)no2)cc1 [Compound A15, 1-((4-(5-(4-(tert-butoxy)phenyl)-1,2,4-oxadiazol-3-yl)naphthalen-1-yl)methyl) azetidine-3-carboxylic acid hydrochloric acid] | > 10 | – | – | – | – | 1.23 | – |
| CCc1cc(/C(C)=N/OCc2ccc(C3CCCCC3)c(C(F)(F)F)c2)ccc1CN1CC(C(=O)O)C1 [Siponmod, reference compound] | > 10 | > 1 | 0.75 | > 10 | 0.00098 | 0.547 | 0.547 |
| O=C(O)C1CN(Cc2ccc(-c3noc(-c4cc5ccccc5[nH]4)n3)c3ccccc23)C1 [Compound A36, 1-((4-(5-(1H-indole-2-yl)-1,2,4-oxadiazol-3-yl)naphthalen-1-yl)methyl) azetidine-3-carboxylic acid hydrochloric acid] | > 10 | – | – | – | – | 1.11 | – |
| N#Cc1cccc(-c2nc(-c3ccc(CN4CC(C(=O)O)C4)c4ccccc34)no2)c1 [Compound A24, 1-((4-(5-(3-cyanophenyl)-1,2,4-oxadiazol-3-yl)naphthalen-1-yl)methyl) azetidine-3-carboxylic acid hydrochloric acid] | > 10 | – | – | – | – | 0.685 | – |
